The target in the assay is urease (Jack bean) (Canavalia ensiformis, UniProt P07374). The experiment in a line: in vitro urease inhibition, indophenol method. The class given is biochemical.

Like-named read-outs stand apart in the source and are kept apart here.

urease (Jack bean), sequence (P07374 whole entry, looked up): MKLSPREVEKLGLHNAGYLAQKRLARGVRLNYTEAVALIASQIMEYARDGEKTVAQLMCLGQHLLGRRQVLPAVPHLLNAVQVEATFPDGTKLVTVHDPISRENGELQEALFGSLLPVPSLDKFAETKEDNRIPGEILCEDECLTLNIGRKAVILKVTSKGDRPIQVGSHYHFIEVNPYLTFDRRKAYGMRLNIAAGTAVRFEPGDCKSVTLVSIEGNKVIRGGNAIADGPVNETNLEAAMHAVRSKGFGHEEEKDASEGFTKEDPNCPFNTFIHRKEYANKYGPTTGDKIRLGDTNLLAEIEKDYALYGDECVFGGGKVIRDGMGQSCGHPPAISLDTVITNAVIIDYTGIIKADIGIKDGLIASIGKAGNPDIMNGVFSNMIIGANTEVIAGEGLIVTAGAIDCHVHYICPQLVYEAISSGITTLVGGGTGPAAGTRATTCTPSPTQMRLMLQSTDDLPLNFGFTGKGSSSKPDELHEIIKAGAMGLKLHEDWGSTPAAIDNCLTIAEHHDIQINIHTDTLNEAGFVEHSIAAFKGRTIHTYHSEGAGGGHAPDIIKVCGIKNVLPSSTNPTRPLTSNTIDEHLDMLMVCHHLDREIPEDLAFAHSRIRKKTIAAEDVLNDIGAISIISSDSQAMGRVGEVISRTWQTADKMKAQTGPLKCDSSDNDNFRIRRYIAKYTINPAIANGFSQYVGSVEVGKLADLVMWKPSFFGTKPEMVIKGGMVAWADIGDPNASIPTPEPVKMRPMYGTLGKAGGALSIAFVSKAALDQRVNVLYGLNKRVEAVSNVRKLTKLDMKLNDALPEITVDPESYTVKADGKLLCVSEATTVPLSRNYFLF

`CC(C)(C)NC(=S)NNC(=O)C12CC3CC(CC(C3)C1)C2` [compound 1, 2-(Adamantane-1-carbonyl)-N-(tert-butyl)hydrazine-1-carbothioamide]: 1.2 ± 0.07 µM corresponded to half-maximal inhibition (IC50).

For `O=C(NNC(=S)NC1CCCCC1)C12CC3CC(CC(C3)C1)C2` [compound 2, 2-(Adamantane-1-carbonyl)-N-cyclohexylhydrazine-1-carbothioamide], the IC50 (read-out: IC50 ± SEM (μM) *) is 2.44 ± 0.11 µM.

The values are drawn from publication PMC9741201, “X-ray Structures and Computational Studies of Two Bioactive 2-(Adamantane-1-carbonyl)-N-substituted Hydrazine-1-carbothioamides” (Molecules, 2022).
